How the values were obtained:
[1] = system: p53-responsive element of mdm2; test: p53 transactivation assay (dual-luciferase, mdm2 promoter reporter) in MEF; format: cell-based, mouse; conditions: MEF treated for 10 hours, TNFα 100 ng.ml^−1, adriamycin 5 μg.ml^−1, etoposide 25 μg.ml^−1; for activation of the p53-responsive element (luciferase activity): luciferase assayed 24 hours after transfection
Method: A: MEF were transfected with the firefly luciferase gene under the control of the mdm2 promoter and treated for 10 hours either with TNFa adriamycin, or etoposide. The luciferase activity was assayed 24 hours after transfection. The p53 responsive element construct was transfected in combination with either p53wt, as a positive control, or with the dominant negative mutants p53-H273 or p53-H175. The luciferase activity was assayed 24 hours later. The results are shown as mean+/−S.D. of four measurements.
(§1) Human wild type p53 cDNA or its mutated forms, H175 and H273 were cloned into the BamH1 site of pCDNA3 vector (Invitrogen), then transferred in pEGFPC1 (Clontech) to give GFP-tagged proteins. Constructs expressing MYC epitope-tagged mutant Rac1, Cdc42 and RhoA proteins and their various mutants were kindly provided by P. Chavrier (Dutartre et al., 1996). The GFP fusion proteins were cloned in the pEGFP-C1 vector (Gauthier-Rouviere et al., 1998), (Ory et al., 2000), (Roux et al., 1997). The pcDNA3myc-NWASP containing the Cdc42-interacting domain of WASP was previously described in (Philips et al., 2000). The pGL2B-mdm2 plasmid in which the reporter gene luciferase is controlled by the p53-responsive element of mdm2 (Barak et al., 1994) was a kind gift of E. Yonish-Rouach. pTKRL plasmid was from Promega. TNFα, adriamycin and etoposide (Sigma) were used in all experiments at the concentration of 100 ng.ml^−1, 5 μg.ml^−1 and 25 μg.ml^−1, respectively.
p53 transactivation was measured using the dual-luciferase assay system from Promega. Cells (5×10^4) were seeded onto twelve-well plates and transfected 18 hours later in OptiMEM containing 0.440 μg of DNA (0.2 μg of appropriate GTPase plasmids, 0.2 μg of pGL2B-mdm2-luciferase plasmid and 0.04 μg of pTKRL plasmid) using 0.33 μl of Lipofectamine (Gibco-BRL) for 4 h. Cells were then left for 24 h in DMEM supplemented with 10% FCS, harvested in […] of Passive Lysis Buffer (PLB, Promega), and luciferase activity was measured following the Dual-luciferase™ Reporter Assay Protocol as recommended by Promega, using a luminometer fitted with two injectors (Berthold).
Cdc42-dependent filopodia formation was induced by bradykinin (Kozma et al., 1995; Nobes and Hall, 1995a). p53 was activated either by Tumor Necrosis Factor-a (TNFa), or using two cytotoxic drugs adriamycin and etoposide, previously shown to induce accumulation of p53 in MEF (Klefstrom et al., 1997; Lowe et al., 1993). […] Finally, we monitored the effect of p53 upregulation by TNFα, etoposide and adriamycin on Cdc42-dependent filopodia formation by bradykinin.

[2] = system: MEF; test: Filopodia formation in MEF (F-actin staining, cells with at least 5 filopodia scored positive); format: cell-based, mouse; conditions: pretreated for 10 hours (TNFα 100 ng.ml^−1, adriamycin 5 μg.ml^−1, etoposide 25 μg.ml^−1), followed by 12 minutes bradykinin; bradykinin alone 62%
Description: as §1
Cdc42-dependent filopodia formation was induced by bradykinin (Kozma et al., 1995; Nobes and Hall, 1995a). p53 was activated either by Tumor Necrosis Factor-a (TNFa), or using two cytotoxic drugs adriamycin and etoposide, previously shown to induce accumulation of p53 in MEF (Klefstrom et al., 1997; Lowe et al., 1993).

Question: What does the source list for Tumor Necrosis Factor-a [TNFα]?
Answer: activation of the p53-responsive element as % of the value obtained with the positive control (p53 wt) [1]: 36%; activation of the p53-responsive element (luciferase activity) [1]: twenty eight-fold; MEF having filopodia (bradykinin-mediated filopodia formation after pretreatment) [2]: 28%

Question: `COc1cccc2c1C(=O)c1c(O)c3c(c(O)c1C2=O)C[C@@](O)(C(=O)CO)C[C@@H]3O[C@H]1C[C@H](N)[C@H](O)[C@H](C)O1` [adriamycin] was tested. Which “activation of the p53-responsive element as % of the value obtained with the positive control (p53 wt)” value [1] did it give?
Answer: The value was 23%.

Question: What about the “activation of the p53-responsive element (luciferase activity)” value [1] of the same compound?
Answer: The value was “nineteen-fold”.

Question: What about the “MEF having filopodia (bradykinin-mediated filopodia formation after pretreatment)” value [2] of the same compound?
Answer: The value was 16%.

Question: For `COc1cc([C@@H]2c3cc4c(cc3[C@@H](O[C@@H]3O[C@@H]5CO[C@@H](C)O[C@H]5[C@H](O)[C@H]3O)[C@H]3COC(=O)[C@H]23)OCO4)cc(OC)c1O` [etoposide], which “activation of the p53-responsive element as % of the value obtained with the positive control (p53 wt)” value [1] is on record?
Answer: Its value is 30%.

Question: What about the “activation of the p53-responsive element (luciferase activity)” value [1] of the same compound?
Answer: The value was “twenty four-fold”.

Question: What about the “MEF having filopodia (bradykinin-mediated filopodia formation after pretreatment)” value [2] of the same compound?
Answer: Its value is 20%.
